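Dose response: 5 concentrations. Exposure: 48 h. Format: 96-well plates. Endpoint: linear interpolation; highest concentration if not reached. GI50: concentration for 50% inhibition of growth. TGI marks complete inhibition of growth.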
Assays:
Assay in all cases: NCI anticancer screen, dose series, 48 h; in the data active = GI50 below about 0.43 µM; inactive = the rest
[1] = tested on: OVCAR-3 ovarian
[2] = tested on: A498 renal
[3] = tested on: ACHN renal
[4] = tested on: OVCAR-4 ovarian
[5] = tested on: DU-145 prostate
[6] = tested on: HL-60(TB) leukemia
[7] = tested on: UACC-257 melanoma
[8] = tested on: SK-OV-3 ovarian
[9] = tested on: MOLT-4 leukemia
[10] = tested on: M14 melanoma
[11] = tested on: CAKI-1 renal
[12] = tested on: NCI-H522 lung
[13] = tested on: KM12 colon
[14] = tested on: NCI/ADR-RES ovarian
[15] = tested on: CCRF-CEM leukemia
[16] = tested on: SNB-19 CNS
[17] = tested on: SW-620 colon
[18] = tested on: T-47D breast
[19] = tested on: TK-10 renal
[20] = tested on: MDA-MB-435
[21] = tested on: UO-31 renal
[22] = tested on: RPMI-8226 leukemia
[23] = tested on: HCT-15 colon
[24] = tested on: OVCAR-5 ovarian
[25] = tested on: SNB-75 CNS
[26] = tested on: HS 578T breast
[27] = tested on: SF-268 CNS
[28] = tested on: MCF7 breast
[29] = tested on: A549 NSCLC
[30] = tested on: OVCAR-8 ovarian
[31] = tested on: NCI-H226 lung
[32] = tested on: HT29 colon
[33] = tested on: MALME-3M melanoma
[34] = tested on: SF-295 CNS
[35] = tested on: HCC-2998 colon
[36] = tested on: UACC-62 melanoma
[37] = tested on: LOX IMVI melanoma
[38] = tested on: 786-0 renal
[39] = tested on: SK-MEL-28 melanoma
[40] = tested on: HOP-92 NSCLC
[41] = tested on: NCI-H23 lung
[42] = tested on: IGROV1 ovarian
[43] = tested on: COLO 205 colon
[44] = tested on: K-562 leukemia
[45] = tested on: SK-MEL-5 melanoma
[46] = tested on: HOP-62 NSCLC
[47] = tested on: NCI-H460 lung
[48] = tested on: SR leukemia
[49] = tested on: SK-MEL-2 melanoma
[50] = tested on: U251 CNS
[51] = tested on: HCT-116 colon
[52] = tested on: PC-3 prostate
[53] = tested on: MDA-MB-231 breast
[54] = tested on: SN12C renal
[55] = tested on: EKVX NSCLC
[56] = tested on: SF-539 CNS

COc1cc(C(=O)/C=C/c2ccc(OCCCCCC[P+](c3ccccc3)(c3ccccc3)c3ccccc3)cc2)cc(OC)c1OC
2780 nM: TGI [21]
2990 nM: TGI [11]
643 nM: TGI [6]
1480 nM: TGI [4]
2100 nM: TGI [24]
> 100000 nM: TGI [14]
1960 nM: TGI [5]
1160 nM: TGI [1]
2090 nM: TGI [12]
703 nM: TGI [22]
3000 nM: TGI [9]
2700 nM: TGI [8]
2810 nM: TGI [19]
1970 nM: TGI [2]
1140 nM: TGI [20]
1310 nM: TGI [13] | TGI [16]
3180 nM: TGI [10]
2820 nM: TGI [3]
1260 nM: TGI [7]
3090 nM: TGI [15]
inactive: GI50 [2] 710 nM | GI50 [3] 1500 nM | GI50 [5] 698 nM | GI50 [8] 1320 nM | GI50 [9] 559 nM | GI50 [10] 971 nM | GI50 [11] 1640 nM | GI50 [14] 3580 nM | GI50 [15] 557 nM | GI50 [19] 1340 nM | GI50 [21] 1460 nM | GI50 [23] 1600 nM | GI50 [24] 754 nM
1360 nM: TGI [17]
3130 nM: TGI [23]
active: GI50 [1] 347 nM | GI50 [4] 374 nM | GI50 [6] 227 nM | GI50 [7] 298 nM | GI50 [12] 342 nM | GI50 [13] 355 nM | GI50 [16] 341 nM | GI50 [17] 358 nM | GI50 [18] 261 nM | GI50 [20] 337 nM | GI50 [22] 214 nM
1770 nM: TGI [18]

COc1cc(-c2n[nH]nc2-c2ccc3c(c2)OCCO3)cc(OC)c1OC
> 100000 nM: TGI [27] | TGI [3] | TGI [5] | TGI [11] | TGI [44] | TGI [15] | TGI [16] | TGI [17] | TGI [53] | TGI [54] | TGI [23] | TGI [24]
23100 nM: TGI [7]
69700 nM: TGI [14]
82.4 nM: TGI [6]
21200 nM: TGI [36]
11200 nM: TGI [13]
34800 nM: TGI [39]
30300 nM: TGI [42]
35000 nM: TGI [30]
12700 nM: TGI [8]
18100 nM: TGI [49]
11600 nM: TGI [9]
42800 nM: TGI [34]
inactive: GI50 [26] 668 nM | GI50 [7] 3730 nM | GI50 [33] 17600 nM | GI50 [36] 2280 nM | GI50 [39] 2880 nM | GI50 [19] 4570 nM | GI50 [24] 2180 nM
37800 nM: TGI [37]
57100 nM: TGI [4]
34600 nM: TGI [19]
39400 nM: TGI [52]
22700 nM: TGI [50]
41700 nM: TGI [41]
12300 nM: TGI [32]
543 nM: TGI [40]
72300 nM: TGI [33]
811 nM: TGI [51]
1500 nM: TGI [2]
166 nM: TGI [45]
64200 nM: TGI [26]
13500 nM: TGI [38]
19300 nM: TGI [46]
22600 nM: TGI [29]
17500 nM: TGI [35]
64100 nM: TGI [31]
77.4 nM: TGI [43]
24600 nM: TGI [21]
37900 nM: TGI [28]
23900 nM: TGI [48]
20000 nM: TGI [47]
active: GI50 [25] < 10 nM | GI50 [1] < 10 nM | GI50 [27] 68.5 nM | GI50 [28] < 10 nM | GI50 [2] 10.4 nM | GI50 [3] < 10 nM | GI50 [29] 22.9 nM | GI50 [4] 33.6 nM | GI50 [30] 41.8 nM | GI50 [5] 25 nM | GI50 [31] 60.9 nM | GI50 [32] 25.3 nM | GI50 [6] 18.9 nM | GI50 [8] < 10 nM | GI50 [34] < 10 nM | GI50 [9] 39.9 nM | GI50 [35] 39.4 nM | GI50 [37] 17.5 nM | GI50 [11] < 10 nM | GI50 [38] < 10 nM | GI50 [13] < 10 nM | GI50 [40] < 10 nM | GI50 [41] 48 nM | GI50 [42] 33.2 nM | GI50 [43] 26.7 nM | GI50 [44] < 10 nM | GI50 [45] < 10 nM | GI50 [14] < 10 nM | GI50 [15] 33.7 nM | GI50 [16] 29.4 nM | GI50 [46] 18.2 nM | GI50 [17] < 10 nM | GI50 [47] 24.6 nM | GI50 [48] < 10 nM | GI50 [49] < 10 nM | GI50 [50] 20.1 nM | GI50 [51] < 10 nM | GI50 [52] 18.4 nM | GI50 [53] 44.4 nM | GI50 [54] 133 nM | GI50 [21] < 10 nM | GI50 [22] 32.5 nM | GI50 [23] < 10 nM
11000 nM: TGI [22]
21900 nM: TGI [25]

O=c1c2ccccc2nc2n1CCc1c-2[nH]c2ccc(Br)cc12
> 100000 nM: TGI [26] | TGI [1] | TGI [2] | TGI [29] | TGI [4] | TGI [30] | TGI [5] | TGI [31] | TGI [32] | TGI [7] | TGI [33] | TGI [34] | TGI [9] | TGI [10] | TGI [37] | TGI [38] | TGI [39] | TGI [55] | TGI [40] | TGI [41] | TGI [42] | TGI [44] | TGI [45] | TGI [14] | TGI [15] | TGI [16] | TGI [46] | TGI [17] | TGI [47] | TGI [48] | TGI [51] | TGI [22] | TGI [24]

O=C(CCCn1cnc([N+](=O)[O-])n1)NCCCn1ccnc1[N+](=O)[O-]
> 100000 nM: TGI [25] | TGI [26] | TGI [1] | TGI [27] | TGI [28] | TGI [2] | TGI [3] | TGI [29] | TGI [30] | TGI [31] | TGI [32] | TGI [6] | TGI [7] | TGI [33] | TGI [34] | TGI [9] | TGI [35] | TGI [38] | TGI [12] | TGI [13] | TGI [39] | TGI [55] | TGI [41] | TGI [44] | TGI [45] | TGI [56] | TGI [15] | TGI [46] | TGI [17] | TGI [47] | TGI [48] | TGI [19] | TGI [49] | TGI [50] | TGI [51] | TGI [52] | TGI [54] | TGI [22] | TGI [23] | TGI [24]
